Where two headings read alike, the source gives them in different places.
Assays:
Human α4β2 = biological target: T1, Human α4β2 (Homo sapiens, UniProt P17787+P43681); experiment: Competition binding to receptors in membrane preparations, human α4β2 ([3H]-nicotine)
T1 construct: expressed in transfected cells; obtained from Dr. Ron Lukas, Barrow Neurological Institute
Protocol: (§1) SH-EP1/human α4β2 (Eaton et al., 2003), SH-EP1/human α4β4 (Gentry et al., 2003), SH-EP1/α6β3β4α5 (Grinevich et al., 2005), TE671/RD and SH-SY5Y cell lines (obtained from Dr. Ron Lukas, Barrow Neurological Institute) were maintained in proliferative growth phase in Dulbecco's modified Eagle's medium (Gibco/BRL) with 10% horse serum (Gibco BRL), 5% fetal bovine serum (HyClone, Logan Utah), 1 mM sodium pyruvate, 4 mM L-glutamine. For maintenance of stable transfectants, the α4β2 and α4β4 cell media was supplemented with 0.25 mg/mL zeocin and 0.13 mg/mL hygromycin B. Selection was maintained for the α6β3β4α5 cells with 0.25 mg/mL of zeocin, 0.13 mg/mL of hygromycin B, 0.4 mg/mL of geneticin, and 0.2 mg/mL of blasticidin. HEK/human α7/RIC3 cells (obtained from J. Lindstrom, U. Pennsylvania) were maintained in proliferative growth phase in Dulbecco's modified Eagle's medium (Gibco/BRL) with 10% fetal bovine serum (HyClone, Logan Utah), 1 mM sodium pyruvate, 4 mM L-glutamine, 0.4 mg/mL geneticin; 0.2 mg/ml hygromycin B.
(§2) Cells were harvested in ice-cold PBS, pH 7.4, then homogenized with a polytron (Brinkmann Instruments, Westbury, N.Y.). Homongenates were centrifuged at 40,000 g for 20 minutes (4° C.). The pellet was resuspended in PBS and protein concentration determined using the Pierce BCA Protein Assay kit (Pierce Biotechnology, Rockford, Ill.).
(§3) Binding to nicotinic receptors was assayed on membranes using standard methods adapted from published procedures (Lippiello and Fernandes, 1986; Davies et al., 1999). In brief, membranes were reconstituted from frozen stocks (approximately 0.2 mg protein) and incubated for 2 h on ice in […] assay buffer (PBS) in the presence of competitor compound (0.001 nM to […]) and radioligand. [^3H]-nicotine (L-(−)-[N-methyl-3H]-nicotine, 69.5 Ci/mmol, Perkin-Elmer Life Sciences) was used for human α4β2 binding studies. [^3H]-epibatidine (52 Ci/mmol, Perkin-Elmer Life Sciences) was used for binding studies at the other receptor subtypes. Incubation was terminated by rapid filtration on a multimanifold tissue harvester (Brandel, Gaithersburg, Md.) using GF/B filters presoaked in 0.33% polyethyleneimine (w/v) to reduce non-specific binding. Filters were washed 3 times and the radioactivity retained was determined by liquid scintillation counting.
(§4) Binding data were expressed as percent total control binding. Replicates for each point were averaged and plotted against the log of drug concentration. The IC50 (concentration of the compound that produces 50% inhibition of binding) was determined by least squares non-linear regression using GraphPad Prism software (GraphPAD, San Diego, Calif.). Ki was calculated using the Cheng-Prusoff equation (Cheng and Prusoff, 1973).

Human Ganglion = biological target: T2, Human Ganglion (Homo sapiens, UniProt P30926+P32297); experiment: Competition binding to receptors in membrane preparations, human ganglion subtype ([3H]-epibatidine)
T2 construct: endogenous in cells
Protocol: as §1, §2, §3, §4

Rat Ganglion = Rat Ganglion (Rattus norvegicus, UniProt P04757+P12392); experiment: Competition binding to receptors in membrane preparations, rat ganglion subtype ([3H]-epibatidine)
Protocol: as §3, §4

Human α7 nAChR = biological target: T3, Human α7 nAChR (Homo sapiens, UniProt P36544); experiment: Competition binding to receptors in membrane preparations, human α7 ([3H]-epibatidine)
T3 construct: expressed in transfected cells; host or cells: HEK cells co-expressing RIC3 (from J. Lindstrom, U. Pennsylvania)
Protocol: as §1, §2, §3, §4

| Compound | Ki (Human α4β2; read-out: Human α4β2 Ki) [µM] | Ki (Human Ganglion) [µM] | Ki (Rat Ganglion) [µM] | Ki (Human Ganglion; read-out: Human Ganglion Ki) [µM] | Ki (Human α7 nAChR) [µM] | Ki (Human α4β2) [µM] |
| --- | --- | --- | --- | --- | --- | --- |
| CN[C@@H](C)C/C=C/c1cncc(O[C@H]2CCN(C(C)=O)C2)c1 | 0.012 |  |  |  |  |  |
| CCC(=O)N1CC[C@H](Oc2cncc(/C=C/C[C@H](C)NC)c2)C1 | 0.0097 | 43 | 40 |  |  |  |
| CN[C@@H](C)C/C=C/c1cncc(O[C@H]2CCN(C(=O)C3CCOCC3)C2)c1 | 0.013 | 100 | 51 |  |  |  |
| CN[C@@H](C)C/C=C/c1cncc(O[C@@H]2CCN(C(C)=O)C2)c1 | 0.0026 | 41 | 24 |  |  |  |
| CCC(=O)N1CC[C@@H](Oc2cncc(/C=C/C[C@H](C)NC)c2)C1 | 0.0019 | 19 | 88 |  |  |  |
| CN[C@@H](C)C/C=C/c1cncc(O[C@@H]2CCN(C(=O)C3CCOCC3)C2)c1 | 0.0044 | 44 |  |  |  |  |
| CCC(=O)N1CC(Oc2cncc(/C=C/C[C@H](C)NC)c2)C1 | 0.0022 |  |  |  |  |  |
| CN[C@@H](C)C/C=C/c1cncc(OC2CN(C(=O)C3CCOCC3)C2)c1 | 0.0048 |  |  |  |  |  |
| CN[C@@H](C)C/C=C/c1cncc(O[C@H]2CCN(C(=O)C3CC3)C2)c1 | 0.014 | 20 |  |  |  |  |
| CN[C@@H](C)C/C=C/c1cncc(O[C@H]2CCN(C(=O)COC)C2)c1 | 0.0044 | 21 |  |  |  |  |
| CN[C@@H](C)C/C=C/c1cncc(O[C@H]2CCN(C(=O)c3ccco3)C2)c1 | 0.0012 | 72 |  |  |  |  |
| CCCOC(=O)N1CC[C@H](Oc2cncc(/C=C/C[C@H](C)NC)c2)C1 | 0.0077 |  |  | 25 |  |  |
| CN[C@@H](C)C/C=C/c1cncc(O[C@H]2CCN(C(=O)OCCOC)C2)c1 | 0.053 |  |  | 270 |  |  |
| CCNC(=O)N1CC[C@H](Oc2cncc(/C=C/C[C@H](C)NC)c2)C1 | 0.061 | 250 |  |  |  |  |
| CN[C@@H](C)C/C=C/c1cncc(O[C@@H]2CCN(C(=O)C3CC3)C2)c1 | 0.0051 | 83 |  |  |  |  |
| CN[C@@H](C)C/C=C/c1cncc(O[C@@H]2CCN(C(=O)COC)C2)c1 | 0.0091 | 55 |  |  |  |  |
| CN[C@@H](C)C/C=C/c1cncc(O[C@@H]2CCN(C(=O)c3ccco3)C2)c1 | 0.0047 | 50 |  |  |  |  |
| CCCOC(=O)N1CC[C@@H](Oc2cncc(/C=C/C[C@H](C)NC)c2)C1 | 0.0051 |  |  | 37 |  |  |
| CN[C@@H](C)C/C=C/c1cncc(O[C@@H]2CCN(C(=O)OCCOC)C2)c1 | 0.0066 |  |  | 48 |  |  |
| CCNC(=O)N1CC[C@@H](Oc2cncc(/C=C/C[C@H](C)NC)c2)C1 | 0.0099 | 140 |  |  |  |  |
| CN[C@@H](C)C/C=C/c1cncc(OC2CN(C(=O)COC)C2)c1 | 0.0049 |  |  | 42 |  |  |
| CN[C@@H](C)C/C=C/c1cncc(OC2CN(C(=O)c3ccco3)C2)c1 | 0.0028 |  |  | 20 |  |  |
| CCCOC(=O)N1CC(Oc2cncc(/C=C/C[C@H](C)NC)c2)C1 | 0.0039 | 44 |  |  |  |  |
| CN[C@@H](C)C/C=C/c1cncc(OC2CN(C(=O)OCCOC)C2)c1 | 0.0096 | 69 |  |  |  |  |
| CN[C@@H](C)C/C=C/c1cnc(Cl)c(O[C@H]2CCN(C(=O)C(C)C)C2)c1 | 0.013 | 27 | 16 |  | 29 |  |
| CN[C@@H](C)C/C=C/c1cncc(O[C@H]2CCN(C(=O)c3ccc(F)cc3F)C2)c1 | 0.029 | 3.3 | 80 |  | 47 |  |

| Compound | Ki (Human α4β2; read-out: Human α4β2 Ki) [µM] | Ki (Human Ganglion) [µM] | Ki (Rat Ganglion) [µM] | Ki (Human Ganglion; read-out: Human Ganglion Ki) [µM] | Ki (Human α7 nAChR) [µM] | Ki (Human α4β2) [µM] |
| --- | --- | --- | --- | --- | --- | --- |
| CN[C@@H](C)C/C=C/c1cnc(Cl)c(O[C@H]2CCN(C(=O)c3ccc(F)cc3F)C2)c1 | 0.022 |  |  |  | 23 |  |
| CN[C@@H](C)C/C=C/c1cncc(O[C@H]2CCN(C(=O)C(C)(C)C)C2)c1 | 0.0075 | 19 | 130 |  | 100 |  |
| CN[C@@H](C)C/C=C/c1cnc(Cl)c(O[C@H]2CCN(C(=O)C(C)(C)C)C2)c1 | 0.0067 | 4.8 | 11 |  | 39 |  |
| CN[C@@H](C)C/C=C/c1cncc(O[C@H]2CCN(C(=O)C3CCC3)C2)c1 | 0.018 | 27 | 17 |  | 66 |  |
| CN[C@@H](C)C/C=C/c1cncc(O[C@H]2CCN(C(=O)C3CCCC3)C2)c1 | 0.0078 | 13 | 6.9 |  | 85 |  |
| CN[C@@H](C)C/C=C/c1cnc(Cl)c(O[C@H]2CCN(C(=O)C3CCCC3)C2)c1 | 0.0021 | 7.6 | 55 |  | 160 |  |
| CN[C@@H](C)C/C=C/c1cncc(O[C@H]2CCN(C(=O)CC(C)(C)C)C2)c1 |  | 12 | 21 |  | 65 | 0.011 |
| CN[C@@H](C)C/C=C/c1cnc(Cl)c(O[C@H]2CCN(C(=O)CC(C)(C)C)C2)c1 | 0.0064 | 15 | 11 |  | 48 |  |
| CN[C@@H](C)C/C=C/c1cncc(O[C@H]2CCN(C(=O)CC(F)(F)F)C2)c1 | 0.003 | 5.4 | 6.8 |  | 68 |  |
| CN[C@@H](C)C/C=C/c1cncc(O[C@H]2CCN(C(=O)CC3CCCC3)C2)c1 | 0.0086 | 26 | 11 |  | 49 |  |
| CN[C@@H](C)C/C=C/c1cnc(Cl)c(O[C@H]2CCN(C(=O)CC3CCCC3)C2)c1 | 0.0061 | 2.5 | 4 |  | 36 |  |
| CN[C@@H](C)C/C=C/c1cnc(Cl)c(O[C@H]2CCN(C(=O)CCC(F)(F)F)C2)c1 |  | 25 | 31 |  | 13 | 0.0028 |
| CN[C@@H](C)C/C=C/c1cncc(O[C@@H]2CCN(C(=O)CC(C)(C)C)C2)c1 |  | 43 | 35 |  | 260 | 0.032 |
| CN[C@@H](C)C/C=C/c1cncc(O[C@@H]2CCN(C(=O)CC3CCCC3)C2)c1 | 0.011 | 5.8 | 170 |  | 53 |  |
| CN[C@@H](C)C/C=C/c1cncc(O[C@@H]2CCN(C(=O)CCC(F)(F)F)C2)c1 | 0.0043 | 19 | 43 |  | 170 |  |
| CN[C@@H](C)C/C=C/c1cncc(O[C@@H]2CCN(C(=O)c3ccc(F)cc3)C2)c1 | 0.0067 | 6.8 | 100 |  | 53 |  |
| CN[C@@H](C)C/C=C/c1cnc(Cl)c(O[C@@H]2CCN(C(=O)C(C)C)C2)c1 | 0.0015 |  |  |  | 36 |  |
| CN[C@@H](C)C/C=C/c1cnc(Cl)c(O[C@@H]2CCN(C(=O)c3ccc(F)cc3F)C2)c1 | 0.0038 | 6.6 | 22 |  | 22 |  |
| CN[C@@H](C)C/C=C/c1cnc(Cl)c(O[C@@H]2CCN(C(=O)C(C)(C)C)C2)c1 | 0.0087 | 26 | 1.1 |  | 34 |  |
| CN[C@@H](C)C/C=C/c1cnc(Cl)c(O[C@@H]2CCN(C(=O)C3CCC3)C2)c1 | 0.0015 |  |  |  | 45 |  |
| CN[C@@H](C)C/C=C/c1cnc(Cl)c(O[C@@H]2CCN(C(=O)C3CCCC3)C2)c1 | 0.0029 |  |  |  | 6.1 |  |
| CN[C@@H](C)C/C=C/c1cnc(Cl)c(O[C@@H]2CCN(C(=O)CC(C)(C)C)C2)c1 | 0.016 |  |  |  | 6.5 |  |
| CN[C@@H](C)C/C=C/c1cnc(Cl)c(O[C@@H]2CCN(C(=O)CC(F)(F)F)C2)c1 | 0.0012 | 18 | 8.5 |  | 300 |  |
| CN[C@@H](C)C/C=C/c1cnc(Cl)c(O[C@@H]2CCN(C(=O)CC3CCCC3)C2)c1 | 0.0075 |  |  |  | 30 |  |
| CN[C@@H](C)C/C=C/c1cncc(O[C@H]2CCN(C(=O)C(C)C)C2)c1 | 0.0061 | 20 | 5.7 |  | 36 |  |
| CN[C@@H](C)C/C=C/c1cnc(Cl)c(O[C@@H]2CCN(C(=O)c3ccc(F)cc3)C2)c1 | 0.0033 | 2 | 3.7 |  | 61 |  |

Reference: patent US20150119378A1, “AZETIDINYLOXY-, PYRROLIDINYLOXY-, AND PIPERIDINYLOXY-SUBSTITUTED METANICOTINES AS NEURONAL NICOTINIC ACETYLCHOLINE RECEPTOR LIGANDS” (priority 2013, published 2015)
